Values quoted from earlier work as cited in patent US11331358B2, “Pharmaceutical composition and method of manufacturing” (CURE PHARMACEUTICAL HOLDING CORP., priority 2014, dated 2022).
In brackets after ≈: the same amount, converted by molar mass. Where two headings read alike, the source gives them in different places.

Details: for Solubility in alcohols, lipids and organic solvents: solvents as named in the value; for Solubility in alcohols, lipids and organic solvents / Solubility in alkaline solutions: qualitative; for Solubility in alkaline solutions: alkaline solutions / alkalai
[1] = qualitative (insol. / sp. sol. / sol)

Compound	Solubility in alcohols, lipids and organic solvents	Solubility in water [1]	Solubility in alkaline solutions	Solubility in water (23° C.) [µg/mL]
CC12CCC(CC1)C(C)(C)O2 [1,8-cineole]	sol. alcohols, organic solvents (ethers, halocarbons)	insol.	–	–
CCCCCc1cc(O)c2c(c1)OC(C)(CCC=C(C)C)C=C2 (stereo not shown) [cannabichromene (CBC), cannabichromene]	sol. pentane	insol.	–	–
CCCCCc1cc2c(c(O)c1C(=O)O)C=CC(C)(CCC=C(C)C)O2 (stereo not shown) [cannabichromenic acid (CBCA), cannabichromenic acid]	sol. alcohols	sol	sol	–
CCCCCc1cc(O)c2c(c1)OC1(C)CCC3C1C2C3(C)C (stereo not shown) [cannabicyclol (CBL), cannabicyclol]	sol. pentane	insol.	–	–
CCCCCc1cc2c(c(O)c1C(=O)O)C1C3C(CCC3(C)O2)C1(C)C (stereo not shown) [cannabicyclolic acid (CBLA), cannabicyclolic acid]	sol. alcohols	sol	sol	–
CCCCCc1cc(O)c(C/C=C(\C)CCC=C(C)C)c(O)c1 [cannabigerol (CBG), cannabigerol]	sol. pentane	insol.	–	–
CCCCCc1cc(O)c(C/C=C(\C)CCC=C(C)C)c(O)c1C(=O)O [cannabigerolic acid (CBGA), cannabigerolic acid]	sol. alcohols	sol	sol	–
CCCCCc1cc(O)c2c(c1)OC(C)(C)c1ccc(C)cc1-2 [cannabinol (CBN), cannabinol]	sol. MeOH, EtOH, lipids, non-polar organic solvents	insol.	–	–
CCCCCc1cc2c(c(O)c1C(=O)O)-c1cc(C)ccc1C(C)(C)O2 [cannabinolic acid (CBNA), cannabinolic acid]	sol. alcohols	sol	sol	–
COc1cc(-c2cc(=O)c3c(O)c(C/C=C(\C)CCC=C(C)C)c(O)cc3o2)ccc1O [cannaflavin A]	sol. alcohols, ethers, halocarbons	insol.	sol.	–
COc1cc(-c2cc(=O)c3c(O)c(CC=C(C)C)c(O)cc3o2)ccc1O [cannaflavin B]	sol. alcohols, ethers, halocarbons	insol.	sol.	–
Cc1ccc(C(C)C)cc1O [carvacrol]	sol. alcohols, organic solvents (ethers, halocarbons)	sp. sol.	–	–
C=C(C)C1CC=C(C)C(=O)C1 (stereo not shown) [carvone]	sol. alcohols, organic solvents (ethers, halocarbons)	insol.	–	–
C=C(C)C1CCC2(C)OC2C1 (stereo not shown) [limonene oxide]	sol. alcohols, organic solvents (ethers, halocarbons)	insol.	–	–
C=C(C)C1CC=C(C)CC1 (stereo not shown) [limonene]	sol. alcohols, organic solvents (ethers, halocarbons), hydrocarbons	insol.	–	–
Cc1ccc(C(C)C)cc1 [p-cymene]	sol. alcohols, organic solvents (ethers, halocarbons), hydrocarbons	insol.	–	–
C[C@@H]1CCC2(OC2(C)C)C(=O)C1 (stereo partly shown) [pulegone-1,2epoxide]	sol. alcohols, organic solvents (ethers, halocarbons)	insol.	–	–
CC(C)=C1CC[C@@H](C)CC1=O [pulegone]	sol. alcohols, organic solvents (ethers, halocarbons)	insol.	–	–
CC1=CCC(O)(C(C)C)CC1 (stereo not shown) [terpinen-4-ol]	sol. alcohols, organic solvents (ethers, halocarbons)	insol.	–	–
C=C(C)C1CC=C(C)CC1c1c(O)cc(CCCCC)cc1O (stereo not shown) [Δ(8)-tetrahydrocannabidiol (Δ(8)-CBD), Δ(8)-tetrahydrocannabidiol]	sol. pentane	insol.	–	–
C=C(C)C1CC=C(C)CC1c1c(O)cc(CCCCC)c(C(=O)O)c1O (stereo not shown) [Δ(8)-tetrahydrocannabidiolic acid]	sol. alcohols	sol	sol	–
CCCCCc1cc(O)c2c(c1)OC(C)(C)[C@@H]1CC=C(C)CC21 (stereo partly shown) [Δ(8)-tetrahydrocannabinol (Δ(8)-THC), Δ(8)-tetrahydrocannabinol]	sol. MeOH, EtOH sol. lipids sol. non-polar organic solvents	insol.	–	–
CCCCCc1cc2c(c(O)c1C(=O)O)C1CC(C)=CC[C@H]1C(C)(C)O2 (stereo partly shown) [Δ(8)-tetrahydrocannabinolic acid]	sol. alcohols	sol	sol	–
CCCc1cc(O)c2c(c1)OC(C)(C)[C@@H]1CCC(C)=CC21 (stereo partly shown) [Δ(9)- tetrahydrocannabivarin (Δ(9)-THV), Δ(9)-tetrahydrocannabivarin]	sol. alcohols	sol	sol	–
CCCCCc1cc(O)c2c(c1)OC(C)(C)[C@@H]1CCC(C)=CC21 (stereo partly shown) [Δ(9)-tetrahydrocannabinol (Δ(9)-THC), Δ(9)-tetrahydrocannabinol, reference compound]	sol. MeOH, EtOH sol. lipids sol. non-polar organic solvents	–	–	2.8 (≈ 8.9 µM)
CCCCCc1cc2c(c(O)c1C(=O)O)C1C=C(C)CC[C@H]1C(C)(C)O2 (stereo partly shown) [Δ(9)-tetrahydrocannabinolic acid]	sol. alcohols	sol	sol	–
C=C1CCC2OC2(C)CC[C@H]2[C@H]1CC2(C)C (stereo partly drawn) [β-caryophyllene epoxide]	sol. alcohols, organic solvents (ethers, halocarbons)	insol.	–	–
C=CC(=C)CCC=C(C)C [β-myrcene]	–	insol.	–	–
fenchone	sol. alcohols, organic solvents (ethers, halocarbons)	insol.	–	–
